This note sets out measurements from patent US11332459B2 (TEIJIN PHARMA LIMITED, priority 2017, dated 2022).

The target of this assay is T1, human TRPC6 (Homo sapiens, UniProt Q9Y210).
T1 construct: expressed in transfected cells
T1 sequence (Q9Y210 1-931): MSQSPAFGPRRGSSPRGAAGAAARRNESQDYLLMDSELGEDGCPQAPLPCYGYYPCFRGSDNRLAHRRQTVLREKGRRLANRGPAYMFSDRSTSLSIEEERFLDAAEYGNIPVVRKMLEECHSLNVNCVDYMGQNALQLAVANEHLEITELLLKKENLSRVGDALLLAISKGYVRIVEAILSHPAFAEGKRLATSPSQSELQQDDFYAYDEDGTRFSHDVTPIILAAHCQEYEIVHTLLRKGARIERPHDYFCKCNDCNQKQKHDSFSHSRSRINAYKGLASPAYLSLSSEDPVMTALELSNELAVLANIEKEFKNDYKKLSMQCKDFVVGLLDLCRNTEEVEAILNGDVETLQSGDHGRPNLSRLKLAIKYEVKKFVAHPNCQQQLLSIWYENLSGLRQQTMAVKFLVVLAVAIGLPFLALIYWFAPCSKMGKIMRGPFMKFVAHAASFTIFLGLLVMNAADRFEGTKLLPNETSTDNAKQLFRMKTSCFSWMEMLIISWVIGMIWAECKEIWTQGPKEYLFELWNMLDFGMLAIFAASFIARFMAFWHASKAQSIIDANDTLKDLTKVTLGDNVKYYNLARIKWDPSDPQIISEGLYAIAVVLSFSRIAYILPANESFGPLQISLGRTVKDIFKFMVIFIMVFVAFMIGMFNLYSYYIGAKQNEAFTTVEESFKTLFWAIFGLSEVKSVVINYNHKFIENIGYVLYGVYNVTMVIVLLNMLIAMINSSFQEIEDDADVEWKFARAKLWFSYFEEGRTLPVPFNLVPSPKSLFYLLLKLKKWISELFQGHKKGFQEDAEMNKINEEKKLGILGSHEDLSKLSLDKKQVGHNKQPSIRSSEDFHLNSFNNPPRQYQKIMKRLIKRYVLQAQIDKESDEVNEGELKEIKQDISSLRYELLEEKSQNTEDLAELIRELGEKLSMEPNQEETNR
The experiment in a line: TRPC6 calcium flux assay (FLIPR, OAG-stimulated calcium influx). The class given is cell-based. Particulars: HEK293 cells stably transfected with human TRPC6, read-out: hTRPC6 Potency. The essentials:
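IC50 derived by plotting background-corrected peak fluorescence (180 s window, normalized to OAG-triggered signal vs buffer) against dose. Stable human TRPC6 HEK293 line was dye-loaded, exposed to compound 25 min, then challenged with 50 uM final OAG in 2 mM Ca2+ HEPES buffer pH 7.2, 0.5% DMSO.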
(Calcium flux is commonly read through the fluorescence of an indicator in the cells.)

In the case of `N[C@@H]1CN(c2nc3cc(F)c(F)cc3n2CC(=O)O)CC[C@H]1F` [Example 437, 2-(2-((3R,4R)-3-amino-4-fluoropiperidin-1-yl)-5,6-difluoro-1H-benzo[d]imidazol-1-yl)acetic acid], the IC50 is over 3.75 µM.

As to `N#Cc1cnc(Cn2c(N3CC[C@@H](F)[C@H](N)C3)nc3ccc(F)cc32)nc1` [Example 442, 2-((2-((3R,4R)-3-amino-4-fluoropiperidin-1-yl)-6-fluoro-1H-benzo[d]imidazol-1-yl)methyl)pyrimidine-5-carbonitrile], the IC50 is 0.000319 µM.

Take `N#Cc1cnc(Cn2c(N3CC[C@@H](F)[C@H](N)C3)nc3cc(F)ccc32)nc1` [Example 443, 2-((2-((3R,4R)-3-amino-4-fluoropiperidin-1-yl)-5-fluoro-1H-benzo[d]imidazol-1-yl)methyl)pyrimidine-5-carbonitrile]: the IC50 is 0.000471 µM.

As for `COc1cnc(Cn2c(N3CC[C@@H](F)[C@H](N)C3)nc3ccc(F)cc32)nc1` [Example 444, (3R,4R)-4-fluoro-1-(6-fluoro-1-((5-methoxypyrimidin-2-yl)methyl)-1H-benzo[d]imidazol-2-yl)piperidin-3-amine], the IC50 is 0.00442 µM.

On to `CN(CC(F)(F)F)C(=O)Cn1c(N2CC[C@@H](F)[C@H](N)C2)nc2ccc(F)cc21` [Example 445, 2-(2-((3R,4R)-3-amino-4-fluoropiperidin-1-yl)-6-fluoro-1H-benzo[d]imidazol-1-yl)-N-methyl-N-(2,2,2-trifluoroethyl)acetamide], for which the IC50 was determined as 0.0208 µM.

Take `COc1cnc(Cn2c(N3CC[C@@H](F)[C@H](N)C3)nc3cc(F)ccc32)nc1` [Example 446, (3R,4R)-4-fluoro-1-(5-fluoro-1-((5-methoxypyrimidin-2-yl)methyl)-1H-benzo[d]imidazol-2-yl)piperidin-3-amine]: the IC50 came to 0.034 µM.

With `CN(CC(F)(F)F)C(=O)Cn1c(N2CC[C@@H](F)[C@H](N)C2)nc2c(C#N)cc(F)cc21` [Example 447, 2-(2-((3R,4R)-3-amino-4-fluoropiperidin-1-yl)-4-cyano-6-fluoro-1H-benzo[d]imidazol-1-yl)-N-methyl-N-(2,2,2-trifluoroethyl)acetamide], the IC50 came out at 0.119 µM.

As to `COc1ccc2nc(N3CC[C@@H](F)[C@H](N)C3)n(CC(=O)N(C)C)c2c1` [Example 448, 2-(2-((3R,4R)-3-amino-4-fluoropiperidin-1-yl)-6-methoxy-1H-benzo[d]imidazol-1-yl)-N,N-dimethylacetamide], the IC50 was found to be 0.123 µM.

Consider `COc1ccc2c(c1)nc(N1CC[C@@H](F)[C@H](N)C1)n2CC(=O)N(C)CC(F)(F)F` [Example 449, 2-(2-((3R,4R)-3-amino-4-fluoropiperidin-1-yl)-5-methoxy-1H-benzo[d]imidazol-1-yl)-N-methyl-N-(2,2,2-trifluoroethyl)acetamide], for which the IC50 was 1.16 µM.

Consider `COc1ccc2c(c1)nc(N1CC[C@@H](F)[C@H](N)C1)n2CC(=O)N(C)C` [Example 450, 2-(2-((3R,4R)-3-amino-4-fluoropiperidin-1-yl)-5-methoxy-1H-benzo[d]imidazol-1-yl)-N,N-dimethylacetamide], for which the IC50 was over 3.75 µM.

With `CO[C@@H]1CCN(c2nc3ccc(F)cc3n2Cc2ccc(C#N)cn2)C[C@H]1N` [Example 451], the IC50 was 0.000613 µM.

For the compound `COc1cc(F)cc2c1nc(N1CC[C@@H](F)[C@H](N)C1)n2Cc1ccc(C#N)cn1` [Example 452, 6-((2-((3R,4R)-3-amino-4-fluoropiperidin-1-yl)-6-fluoro-4-methoxy-1H-benzo[d]imidazol-1-yl)methyl)nicotinonitrile], the IC50 stood at 0.00117 µM.

Turning to `N#Cc1ccc(Cn2c(N3CC[C@@H](F)[C@H](N)C3)nc3ccc(C(F)(F)F)nc32)nc1` [Example 453, 6-((2-((3R,4R)-3-amino-4-fluoropiperidin-1-yl)-5-(trifluoromethyl)-3H-imidazo[4,5-b]pyridin-3-yl)methyl)nicotinonitrile], the IC50 was 0.00151 µM.

In the case of `CO[C@@H]1CCN(c2nc3ccc(F)cc3n2Cc2ncc(Cl)cn2)C[C@H]1N` [Example 454, (3R,4R)-1-(1-((5-chloropyrimidin-2-yl)methyl)-6-fluoro-1H-benzo[d]imidazol-2-yl)-4-methoxypiperidin-3-amine], the IC50 was found to be 0.00152 µM.

On to `N[C@@H]1CN(c2nc3ccc(Br)cc3n2CC(=O)N2CCC2)CC[C@H]1F` [Example 455, 2-(2-((3R,4R)-3-amino-4-fluoropiperidin-1-yl)-6-bromo-1H-benzo[d]imidazol-1-yl)-1-(azetidin-1-yl)ethan-1-one], for which the IC50 is 0.00656 µM.

With `CN(CC(F)(F)F)C(=O)Cn1c(N2CC[C@@H](F)[C@H](N)C2)nc2ccc(F)cc21` [Example 457, 2-(2-((3R,4R)-3-amino-4-fluoropiperidin-1-yl)-6-fluoro-1H-benzo[d]imidazol-1-yl)-N-methyl-N-(2,2,2-trifluoroethyl)acetamide], the IC50 was determined as 0.0133 µM.

With `N#Cc1ccc(Cn2c(N3CC[C@@H](F)[C@H](N)C3)nc3nc(C(F)(F)F)ccc32)nc1` [Example 458, 6-((2-((3R,4R)-3-amino-4-fluoropiperidin-1-yl)-5-(trifluoromethyl)-1H-imidazo[4,5-b]pyridin-1-yl)methyl)nicotinonitrile], the IC50 was 0.0163 µM.

For `N[C@@H]1CN(c2nc3ccc(C(F)(F)F)cc3n2CC(=O)N2CCOCC2)CC[C@H]1F` [Example 459, 2-(2-((3R,4R)-3-amino-4-fluoropiperidin-1-yl)-6-(trifluoromethyl)-1H-benzo[d]imidazol-1-yl)-1-morpholinoethan-1-one], the IC50 came out at 0.0164 µM.

On to `CN(CC(F)(F)F)C(=O)Cn1c(N2CC[C@@H](F)[C@H](N)C2)nc2cc(F)ccc21` [Example 460, 2-(2-((3R,4R)-3-amino-4-fluoropiperidin-1-yl)-5-fluoro-1H-benzo[d]imidazol-1-yl)-N-methyl-N-(2,2,2-trifluoroethyl)acetamide], for which the IC50 was 0.0242 µM.

`CN(C)C(=O)Cn1c(N2CC[C@H](F)[C@H](N)C2)nc2ccc(Cl)cc21` [Example 461, 2-(2-((3R,4S)-3-amino-4-fluoropiperidin-1-yl)-6-chloro-1H-benzo[d]imidazol-1-yl)-N,N-dimethylacetamide]: the IC50 is 0.0289 µM.

Take `CN(CC(F)(F)F)C(=O)Cn1c(N2CC[C@H](F)[C@H](N)C2)nc2ccc(F)cc21` [Example 462, 2-(2-((3R,4S)-3-amino-4-fluoropiperidin-1-yl)-6-fluoro-1H-benzo[d]imidazol-1-yl)-N-methyl-N-(2,2,2-trifluoroethyl)acetamide]: the IC50 was 0.0294 µM.

Take `CO[C@H]1CCN(c2nc3ccc(F)cc3n2Cc2ccc(C#N)cn2)C[C@H]1N` [Example 463, 6-((2-((3R,4S)-3-amino-4-methoxypiperidin-1-yl)-6-fluoro-1H-benzo[d]imidazol-1-yl)methyl)nicotinonitrile]: the IC50 came to 0.0339 µM.

On to `N[C@@H]1CN(c2nc3ccc(C(F)(F)F)cc3n2CC(=O)N2CCOCC2)CC[C@@H]1F` [Example 464, 2-(2-((3R,4S)-3-amino-4-fluoropiperidin-1-yl)-6-(trifluoromethyl)-1H-benzo[d]imidazol-1-yl)-1-morpholinoethan-1-one], for which the IC50 was determined as 0.0631 µM.

For `CN(CC(F)(F)F)C(=O)Cn1c(N2CCC(F)(F)[C@H](N)C2)nc2ccc(F)cc21` [Example 465, (R)-2-(2-(3-amino-4,4-difluoropiperidin-1-yl)-6-fluoro-1H-benzo[d]imidazol-1-yl)-N-methyl-N-(2,2,2-trifluoroethyl)acetamide], the IC50 was found to be 0.0867 µM.

For the compound `CO[C@H]1CCN(c2nc3ccc(F)cc3n2Cc2ncc(Cl)cn2)C[C@H]1N` [Example 467, (3R,4S)-1-(1-((5-chloropyrimidin-2-yl)methyl)-6-fluoro-1H-benzo[d]imidazol-2-yl)-4-methoxypiperidin-3-amine], the IC50 was 0.123 µM.

Consider `CN(C)C(=O)Cn1c(N2CC[C@@H](F)[C@H](N)C2)nc2ccc(OC(F)(F)F)cc21` [Example 468, 2-(2-((3R,4R)-3-amino-4-fluoropiperidin-1-yl)-6-(trifluoromethoxy)-1H-benzo[d]imidazol-1-yl)-N,N-dimethylacetamide], for which the IC50 is 0.178 µM.

With `CN[C@@H]1CN(c2nc3ccc(F)cc3n2CC(=O)N(C)CC(F)(F)F)CC[C@H]1F` [Example 469, 2-(6-fluoro-2-((3R,4R)-4-fluoro-3-(methylamino)piperidin-1-yl)-1H-benzo[d]imidazol-1-yl)-N-methyl-N-(2,2,2-trifluoroethyl)acetamide], the IC50 was 0.19 µM.
